This is an account of results in ChEMBL document CHEMBL3352235, “Design, synthesis and biological evaluation of 17-arylmethylamine-17-demethoxygeldanamycin derivatives as potent Hsp90 inhibitors” (Eur J Med Chem, 2014).

pIC50: −log10 of the molar value.

Data set [1] relates to MDA-MB-231. Briefly: Antitumor activity against human MDA-MB-231 cells xenografted in BALB/c mouse assessed as reduction in tumor weight at 10 mg/kg, iv dosed every 3 days for 15 days. The class given is functional. The following applies: read-out: GI.
For data set [2], the system named is MDA-MB-231. Description: Antitumor activity against human MDA-MB-231 cells xenografted in BALB/c mouse assessed as tumor volume at 10 mg/kg, iv dosed every 3 days for 15 days relative to untreated control. The class given is functional. On the technique in general: A xenograft is tissue or cells of one species grown in another, often human tumour cells in immunodeficient mice.

Data set [3] deals with Mus musculus. Description: Hepatotoxicity in Kunming mouse assessed as serum ALT level at 10 mg/kg, iv (reference value: 60.7 +/- 6.9 U/L). The class given is toxicity, organism-based. Also on record: dose 10 mg/kg, route intravenous. The following applies: in vivo.
The test system of the next data set is LNCaP. Description: cells. The following applies: Homo sapiens, 72 h.
Data set [4] relates to Mus musculus. Description: Hepatotoxicity in Kunming mouse assessed as serum AST level at 10 mg/kg, iv (reference value: 197.2 +/- 11.2 U/L). The class given is toxicity, organism-based. Also on record: dose 10 mg/kg, route intravenous. The following applies: in vivo.
Data set [5] concerns MDA-MB-231. Description: cells. The following applies: Homo sapiens, MDA-MB-231, 72 h.
Description: Cytotoxicity against human MDA-MB-231 cells after 72 hrs by MTT assay
The target in data set [6] is Heat shock protein HSP 90-alpha (Homo sapiens, UniProt P07900). Description: Displacement of GA-FITC from human recombinant HSP90alpha ATP-binding site by fluorescence polarization assay. (In fluorescence polarisation assays a small probe gives low polarisation when free and higher when bound to something large.)

Description for LNCaP: Cytotoxicity against human LNCAP cells after 72 hrs by MTT assay

On to `CO[C@H]1/C=C\C=C(/C)C(=O)NC2=CC(=O)C(NCc3ccc(C(F)(F)F)nc3)=C(C[C@@H](C)C[C@H](OC)[C@H](O)[C@@H](C)/C=C(\C)[C@@H]1OC(N)=O)C2=O`, for which the inhibition in vivo at 10 mg/kg with MDA-MB-231 [1] stood at 63%. In the data set with MDA-MB-231 [2], the T/C turned out to be 31%. Moreover, the Activity in the data set on Mus musculus [3] is 61 U/L; in the data set on Mus musculus [4], 164.1 U/L. Also, the pIC50 with LNCaP is 6.46; in the data set with MDA-MB-231 [5], 7.00; in data set [6], 6.37.

One may read the T/C as the ratio of treated to control. The term pIC50 denotes −log10 of the IC50, conventionally taken in molar units.
